How the values were obtained:
[1] = molecular target: T1, hASIC1a (Homo sapiens, UniProt P78348); test: Fluorescent calcium dye (Fluo-4-NW) assay in cells expressing hASIC1a (Example 1); type: cell-based; conditions: CHO cells stably expressing hASIC1a, mild acidic buffer, increasing concentrations; FIGS. 1A-1C
T1 construct: expressed in transfected cells
T1 sequence (P78348 1-528): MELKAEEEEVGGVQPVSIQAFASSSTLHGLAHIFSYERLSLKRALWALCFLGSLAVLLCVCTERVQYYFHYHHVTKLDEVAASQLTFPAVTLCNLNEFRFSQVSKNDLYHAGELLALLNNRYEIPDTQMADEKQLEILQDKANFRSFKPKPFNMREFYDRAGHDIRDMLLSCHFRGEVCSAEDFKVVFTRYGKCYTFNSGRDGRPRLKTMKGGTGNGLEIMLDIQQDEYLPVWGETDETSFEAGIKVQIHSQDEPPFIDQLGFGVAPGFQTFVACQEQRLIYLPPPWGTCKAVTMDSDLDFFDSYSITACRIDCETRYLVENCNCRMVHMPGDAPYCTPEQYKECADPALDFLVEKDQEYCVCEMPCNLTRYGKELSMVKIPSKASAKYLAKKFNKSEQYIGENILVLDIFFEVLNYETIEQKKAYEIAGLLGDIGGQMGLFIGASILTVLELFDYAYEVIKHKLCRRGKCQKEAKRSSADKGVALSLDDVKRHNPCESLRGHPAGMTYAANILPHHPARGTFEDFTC
Method: ASIC1a expressing CHO cells are grown in culture medium (DMEM with 10% FBS), in polystyrene culture flasks ([…]) at 37° C. in a humidified atmosphere of 5% CO2. Confluency of cells should be 70-90% on day of plating. Cells are rinsed with 10 ml of PBS and cells are re-suspended by addition of culture medium and trituration with a 25 ml pipette. The cells are seeded at a density of approximately 10^4 cells/ml (50 μl/well and then brought to a total volume of 150 μl/well with culture medium, following 30 minutes incubation) in black-walled, clear bottom, 96-well plates pre-treated with poly-D-lysine (from BD Bioscience). Plated cells were allowed to proliferate for 48-72 h before loading with dye. Fluo-4-NW (500 μg, DiscoveRX) is dissolved in 110 μl DMSO. The Fluo-4-NW stock solution (1000×) is diluted with the assay buffer. A water soluble stock solution (100×) of probenicid (DiscoveRX) and a stock solution (1000×) of pluronic acid (P-127, Molecular Probes) are also added in the loading buffer containing Fluo-4NW dye. The culture medium is aspirated from the wells, and 100 μl of the Fluo-4-NW loading solution is added to each well. The cells are incubated at 37° C. for 30 min. followed by 30 min. incubation at room temperature. The assay buffer contains 90 mM NaCl, 5 mM KCl, 4 mM CaCl2, 0.8 mM MgSO4, 50 mM NMDG, 5 mM Glucose-D, 10 mM HEPES, pH 7.4. After the loading time, the loading buffer is not removed and the fluorescence is measured in FlexStation™ (Molecular Devices, USA), or any other suitable equipment known to the skilled in the art. Temperature: 25° C. First addition: 50 μl test solution at a rate of 26 μl/sec and a starting height of 125 μl. […] Reading intervals: pre-incubation—120 sec. antagonist phase, addition of MES at 145 sec. and reading time with agonist 100 sec (total run time of 240 sec.). Fluorescence obtained after stimulation is corrected for the mean basal fluorescence (in modified Assay Buffer). […] Gated-channel activity was determined by measuring intracellular calcium variation using a fluorescent calcium dye (Fluo-4-NW).

[2] = test system: acute paw inflammation caused by intraplantar injection of λ-carrageenan; test: Carrageenan model for pain (Example 8); type: in vivo; conditions: rat, 30 and 100 mg/kg SC, 4 h post-carrageenan
Method: Acute inflammatory hyperalgesia is induced in rats by unilateral injection of 150 μl of a 3% solution of λ-carrageenan into the plantar surface of the left hind paw 3-5 hours prior to testing. Thermal hyperalgesia, mechanical allodynia, mechanical hyperalgesia, weight bearing asymmetry and paw inflammation were determined. Rats are pretreated with test compounds either administered intravenously (IV), by subcutaneous injection (SC) or by oral gavage (PO).
Thermal nociceptive thresholds are determined according to the method described elsewhere (Hargreaves et al., 1988). Briefly, through the glass surface, a radiant heat source (8V, 50 W projector bulb) is focused onto the plantar surface of the hind paw. The rat's paw-withdrawal latency to this stimulus is recorded to the nearest 0.1 s. Each latency score is an average of three trials, which are separated by at least 5 min. In all rats, both the injured and uninjured hind paws are similarly tested, allowing direct comparisons between inflamed and non-inflamed paws. […]
Mechanical hyperalgesia is determined by measuring the difference of withdrawal thresholds in response to increasing pressure in the inflamed vs contralateral paw using the Randall-Sellito Paw pressure meter (IITC Life Science) (Randall L O and Sellito J J., 1957). Briefly, rats are held in a contention jacket suspended by a stand and allowed to acclimate for 10 min. Then the tips of the paw pressure applicator are positioned close to the middle of the plantar and the dorsal area of the paw, avoiding the saphenous nerve innervations and an increasing pressure is applied until the rat removes it. Measures are performed in triplicate for each paw by alternating each paw with an interval of at least 1 min to avoid sensitization. […]
Carrageenan induced paw oedema is measured with a plethysmometer (IITC Life Science). Briefly, a mark is made on the ankles of the rat and the ipsi and contralateral paw are submerged 3 times into water up to the mark in order to determine the paw volume by calculation of water displacement.

inhibition of acid-induced hASIC1a activity (intracellular calcium variation) [1]	SMILES	mechanical hyperalgesia ([2]; 1 min prior to carrageenan)	size of the inflammation ([2]; 1 min prior to carrageenan)	thermal hyperalgesia ([2]; 1 min prior to carrageenan)	mechanical hyperalgesia ([2]; 30 min prior to carrageenan)	size of the inflammation ([2]; 30 min prior to carrageenan)	thermal hyperalgesia ([2]; 30 min prior to carrageenan)
dose-dependently inhibited	Cc1cc(OC2CCN(Cc3ccccc3)CC2)c2cc(O)ccc2n1 [Compound 13, 4-(1-benzylpiperidin-4-yloxy)-2-methylquinolin-6-ol]	dose-dependently reversed	reduced	dose-dependently reversed			
	Cc1ccc(-c2nc(Nc3ccc(C(=O)O)cc3)c3cc(Cl)ccc3n2)cc1 [Compound 124]				dose-dependently reversed	reduced	dose-dependently reversed

Reference: US20090023773A1, “COMPOSITIONS AND METHODS FOR MODULATING GATED ION CHANNELS” (PainCeptor Pharma Corporation, priority 2007, published 2009)
